From patent publication US20240208934A1, “ULK1/2 INHIBITORS AND THEIR USE THEREOF” (LifeArc, priority 2021, published 2024) come the findings set out here.

The test system of the assay is ULK. Kind of assay: ULK radiometric assay (33P incorporation onto MBP substrate, glass fiber capture filter). The settings on record: ULK Biochemical activity; 20 uM ATP, 0.2 mg/mL MBP; averages of at least two independent experiments. Put shortly: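 ³³P transfer from 20 uM ATP onto 0.2 mg/mL MBP in Tris-HCl pH 7.5 with MgCl2, EGTA, BSA and β-mercaptoethanol, captured on glass fiber filters. Ten-point half-log dilutions at 10% DMSO final, duplicate wells normalized to DMSO controls; IC50 from four-parameter fit, averaged over ≥2 independent experiments.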
`CC(=O)N1CCc2cc(Cl)c(Nc3ncc(C(F)(F)F)c(NCCCN4CCCCC4=O)n3)cc2C1` [Example 56, 1-[3-[[2-[(2-Acetyl-6-chloro-3,4-dihydro-1H-isoquinolin-7-yl)amino]-5-(trifluoromethyl)pyrimidin-4-yl]amino]propyl]piperidin-2-one] returned an IC50 of 200 to 1000 nM. Compound `CN1CCC(Oc2cccc(Nc3ncc(C4CC4)c(NCCCN4CCCCC4=O)n3)c2)CC1` [Example 16, 1-(3-((5-Cyclopropyl-2-((3-((1-methylpiperidin-4-yl)oxy)phenyl)amino)pyrimidin-4-yl)amino)propyl)piperidin-2-one] came in with an IC50 of under 200 nM.

`COc1nn(CC(C)(C)O)cc1Nc1ncc(C(F)(F)F)c(NCCCN2CCCCC2=O)n1` [Example 28]: the IC50 was under 200 nM.

`COc1cc(C(=O)O)ccc1Nc1ncc(C(F)(F)F)c(NCCCN2CCCCC2=O)n1` [Example 36, 3-Methoxy-4-[[4-[3-(2-oxo-1-piperidyl)propylamino]-5-(trifluoromethyl)pyrimidin-2-yl]amino]benzoic acid] gave an IC50 of at least 1000 nM.

In the case of `O=C1CCCCN1CCCNc1nc(Nc2cc(S(=O)(=O)N3CCOCC3)cc3c2OCC3)ncc1C(F)(F)F` [Example 51, 1-[3-[[2-[(5-Morpholinosulfonyl-2,3-dihydrobenzofuran-7-yl)amino]-5-(trifluoromethyl)pyrimidin-4-yl]amino]propyl]piperidin-2-one], the IC50 was at least 1000 nM. Take `FC(F)(F)c1cnc(Nc2cnn(C3CCNC3)c2)nc1NCc1cc[nH]n1` (stereo not shown) [Example 85, N4-(1H-pyrazol-3-ylmethyl)-N2-(1-pyrrolidin-3-ylpyrazol-4-yl)-5-(trifluoromethyl)pyrimidine-2,4-diamine]: the IC50 was under 200 nM.

In the case of `FC(F)(F)c1cnc(Nc2ccc3c(c2)CCNC3)nc1NCCc1cnc[nH]1` [Example 65, N4-[2-(1H-imidazol-5-yl)ethyl]-N2-(1,2,3,4-tetrahydroisoquinolin-6-yl)-5-(trifluoromethyl)pyrimidine-2,4-diamine], the IC50 was under 200 nM.

Consider `COc1cc2c(cc1Nc1ncc(C(F)(F)F)c(NCCCN3CCCCC3=O)n1)C(=O)NCC2` [Example 33, 6-Methoxy-7-[[4-[3-(2-oxo-1-piperidyl)propylamino]-5-(trifluoromethyl)pyrimidin-2-yl]amino]-3,4-dihydro-2H-isoquinolin-1-one], for which the IC50 is at least 1000 nM. Regarding `O=C1CCCCN1CCCNc1nc(Nc2cc3c(cc2C(F)(F)F)CCNC3)ncc1C(F)(F)F` [Example 45, 1-[3-[[5-(Trifluoromethyl)-2-[[6-(trifluoromethyl)-1,2,3,4-tetrahydroisoquinolin-7-yl]amino]pyrimidin-4-yl]amino]propyl]piperidin-2-one], the IC50 was under 200 nM. Regarding `FC(F)(F)c1cnc(Nc2ccc(N3CCOCC3)cc2)nc1NCC1CNCCO1` (stereo not shown) [Example 90, N2-(4-morpholinophenyl)-N4-(morpholin-2-ylmethyl)-5-(trifluoromethyl)pyrimidine-2,4-diamine], the IC50 lay within 200 to 1000 nM.

With `COc1cc2c(cc1Nc1ncc(C(F)(F)F)c(NCCCn3cccn3)n1)CNCC2` [Example 73, N2-(6-methoxy-1,2,3,4-tetrahydroisoquinolin-7-yl)-N4-(3-pyrazol-1-ylpropyl)-5-(trifluoromethyl)pyrimidine-2,4-diamine], the IC50 is at least 1000 nM. To `COc1cc2c(cc1Nc1ncc(C3CC3)c(NCCCN3CCCCC3=O)n1)CNCC2` [Example 75, 1-[3-[[5-Cyclopropyl-2-[(6-methoxy-1,2,3,4-tetrahydroisoquinolin-7-yl)amino]pyrimidin-4-yl]amino]propyl]piperidin-2-one] belongs 200 to 1000 nM; to `CCOc1cc2c(cc1Nc1ncc(C(F)(F)F)c(NCCCN3CCCCC3=O)n1)CNCC2` [Example 21, 1-[3-[[2-[(6-Ethoxy-1,2,3,4-tetrahydroisoquinolin-7-yl)amino]-5-(trifluoromethyl)pyrimidin-4-yl]amino]propyl]piperidin-2-one], under 200 nM; to `COc1cc2c(cc1Nc1ncc(C(F)(F)F)c(NCCCN3CCCCC3=O)n1)CNCC2` [Example 20, 1-[3-[[2-[(6-Methoxy-1,2,3,4-tetrahydroisoquinolin-7-yl)amino]-5-(trifluoromethyl)pyrimidin-4-yl]amino]propyl]piperidin-2-one], under 200 nM. For the compound `CN1CCc2cc(Nc3ncc(C(F)(F)F)c(NCCCN4CCCC4)n3)ccc2C1` [Example 6, N2-(2-methyl-1,2,3,4-tetrahydroisoquinolin-6-yl)-N4-(3-(pyrrolidin-1-yl)propyl)-5-(trifluoromethyl)pyrimidine-2,4-diamine], the IC50 is 200 to 1000 nM. To `O=C1CCCCN1CCCNc1nc(Nc2ccc3c(c2)CNCC3)ncc1C(F)(F)F` [Example 83, 1-[3-[[2-(1,2,3,4-Tetrahydroisoquinolin-7-ylamino)-5-(trifluoromethyl)pyrimidin-4-yl]amino]propyl]piperidin-2-one] belongs under 200 nM.

One may read the IC50 as the point on the concentration scale where inhibition reaches its midpoint.
